Experimental findings from ChEMBL document CHEMBL1770059, “Identification of chemicals to inhibit the kinase activity of leucine-rich repeat kinase 2 (LRRK2), a Parkinson's disease-associated protein” (Bioorg Med Chem Lett, 2011) are described below.

The subject of data set [1] is Leucine-rich repeat serine/threonine-protein kinase 2 (Homo sapiens), Q5S007 [G2019S]. Briefly: Inhibition of LRRK2 G2019S mutant expressed in mouse SN4741 cells assessed as reduction in hydrogen peroxide-induced neurotoxicity at 10 uM by measuring cell survival after 48 hrs by crystal violet assay relative to control. Type of data set: cell-based.
Data set [2] addresses RAF proto-oncogene serine/threonine-protein kinase (Homo sapiens) (UniProt P04049). Briefly: Inhibition of c-Raf assessed as residual activity of enzyme at 25 uM.
The target of data set [3] is T1, Mitogen-activated protein kinase kinase kinase 5 (Homo sapiens) (UniProt Q99683).
T1 sequence (whole entry): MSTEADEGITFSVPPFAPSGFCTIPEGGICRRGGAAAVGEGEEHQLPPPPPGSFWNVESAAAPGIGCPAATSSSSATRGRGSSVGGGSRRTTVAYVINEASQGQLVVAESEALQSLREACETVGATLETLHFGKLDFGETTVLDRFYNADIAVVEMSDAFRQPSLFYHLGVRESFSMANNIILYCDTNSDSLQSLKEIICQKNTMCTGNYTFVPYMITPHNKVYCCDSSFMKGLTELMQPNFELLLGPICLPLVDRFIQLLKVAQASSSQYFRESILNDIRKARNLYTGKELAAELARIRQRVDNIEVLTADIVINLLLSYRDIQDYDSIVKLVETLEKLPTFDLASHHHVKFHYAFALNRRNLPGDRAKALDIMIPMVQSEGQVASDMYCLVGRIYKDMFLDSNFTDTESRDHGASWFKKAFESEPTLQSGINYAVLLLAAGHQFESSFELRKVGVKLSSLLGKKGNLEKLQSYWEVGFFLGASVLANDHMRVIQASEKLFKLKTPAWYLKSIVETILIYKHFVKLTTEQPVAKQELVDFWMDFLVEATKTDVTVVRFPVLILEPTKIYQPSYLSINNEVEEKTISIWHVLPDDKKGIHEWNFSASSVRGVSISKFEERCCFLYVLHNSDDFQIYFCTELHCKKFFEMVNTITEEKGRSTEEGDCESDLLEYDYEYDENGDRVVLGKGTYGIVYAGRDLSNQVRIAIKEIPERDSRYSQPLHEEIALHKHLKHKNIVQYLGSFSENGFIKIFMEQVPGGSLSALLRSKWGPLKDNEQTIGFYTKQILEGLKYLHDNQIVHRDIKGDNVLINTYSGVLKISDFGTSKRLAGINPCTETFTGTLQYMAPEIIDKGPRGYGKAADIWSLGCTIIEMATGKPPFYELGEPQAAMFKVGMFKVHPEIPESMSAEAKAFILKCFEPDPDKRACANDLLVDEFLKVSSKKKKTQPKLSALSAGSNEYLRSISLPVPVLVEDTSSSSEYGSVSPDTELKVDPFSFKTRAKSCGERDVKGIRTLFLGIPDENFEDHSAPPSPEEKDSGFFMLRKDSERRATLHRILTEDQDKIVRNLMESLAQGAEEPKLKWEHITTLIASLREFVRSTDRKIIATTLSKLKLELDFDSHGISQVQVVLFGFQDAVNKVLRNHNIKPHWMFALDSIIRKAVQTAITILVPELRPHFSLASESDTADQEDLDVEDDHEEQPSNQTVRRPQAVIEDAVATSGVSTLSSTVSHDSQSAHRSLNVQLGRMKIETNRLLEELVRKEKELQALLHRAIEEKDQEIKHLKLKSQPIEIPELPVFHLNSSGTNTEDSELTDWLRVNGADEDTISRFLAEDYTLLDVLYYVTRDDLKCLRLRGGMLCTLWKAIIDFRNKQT
Briefly: Inhibition of ASK1 assessed as residual activity of enzyme at 10 uM.

Data set [4] in a line: Neurotoxicity in rat primary cortical neurons assessed as cell survival at 100 uM after 24 hrs by MTT assay. It is filed as toxicity, cell-based. The note with it: cerebral cortex neuron. (In general: Tetrazolium assays rely on reduction of a dye to a coloured formazan, in cell work by metabolically active cells.)
The target of data set [5] is Glycogen synthase kinase-3 beta (Homo sapiens) (UniProt P49841). The data set can be described thus: Inhibition of GSK3-beta assessed as residual activity of enzyme at 25 uM.
Data set [6] has as its target Cyclin-dependent kinase 5/CDK5 activator 1 (Homo sapiens) (UniProt Q00535+Q15078). Briefly: Inhibition of CDK5/p25 assessed as residual activity of enzyme at 10 uM. Type of data set: protein-complex assay.
Data set [7] addresses Mitogen-activated protein kinase kinase kinase 9 (Homo sapiens) (UniProt P80192). Briefly: Inhibition of MLK1 assessed as residual activity of enzyme at 10 uM.
Data set [8] addresses T2, Serine/threonine-protein kinase TAO3 (Homo sapiens) (UniProt Q9H2K8).
T2 sequence (whole entry): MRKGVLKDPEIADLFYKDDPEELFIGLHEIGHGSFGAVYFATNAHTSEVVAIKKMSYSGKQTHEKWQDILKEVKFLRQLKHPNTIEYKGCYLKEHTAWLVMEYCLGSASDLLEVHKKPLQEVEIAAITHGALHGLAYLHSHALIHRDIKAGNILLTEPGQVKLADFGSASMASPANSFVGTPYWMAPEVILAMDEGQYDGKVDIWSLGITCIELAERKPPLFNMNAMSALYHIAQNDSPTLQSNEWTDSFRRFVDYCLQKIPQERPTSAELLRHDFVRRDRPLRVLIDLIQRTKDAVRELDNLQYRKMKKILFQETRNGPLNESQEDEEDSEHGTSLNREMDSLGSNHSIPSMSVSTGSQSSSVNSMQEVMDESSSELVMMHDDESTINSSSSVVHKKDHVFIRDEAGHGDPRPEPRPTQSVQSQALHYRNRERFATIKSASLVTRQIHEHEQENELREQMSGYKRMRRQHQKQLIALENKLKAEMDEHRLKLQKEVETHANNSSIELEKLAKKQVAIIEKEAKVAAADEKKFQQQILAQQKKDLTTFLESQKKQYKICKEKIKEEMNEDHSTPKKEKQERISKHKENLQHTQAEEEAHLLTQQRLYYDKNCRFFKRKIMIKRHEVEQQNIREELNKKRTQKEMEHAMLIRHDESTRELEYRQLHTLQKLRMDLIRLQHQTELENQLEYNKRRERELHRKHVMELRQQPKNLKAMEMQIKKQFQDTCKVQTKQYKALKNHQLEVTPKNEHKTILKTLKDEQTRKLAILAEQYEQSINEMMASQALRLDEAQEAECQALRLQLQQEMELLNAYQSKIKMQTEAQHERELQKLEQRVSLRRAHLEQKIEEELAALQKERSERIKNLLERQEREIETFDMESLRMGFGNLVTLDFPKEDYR
Briefly: Inhibition of TAO3 assessed as residual activity of enzyme at 10 uM.

Sequence of Leucine-rich repeat serine/threonine-protein kinase 2 (Homo sapiens), Q5S007 [G2019S] (Q5S007 whole entry G2019S): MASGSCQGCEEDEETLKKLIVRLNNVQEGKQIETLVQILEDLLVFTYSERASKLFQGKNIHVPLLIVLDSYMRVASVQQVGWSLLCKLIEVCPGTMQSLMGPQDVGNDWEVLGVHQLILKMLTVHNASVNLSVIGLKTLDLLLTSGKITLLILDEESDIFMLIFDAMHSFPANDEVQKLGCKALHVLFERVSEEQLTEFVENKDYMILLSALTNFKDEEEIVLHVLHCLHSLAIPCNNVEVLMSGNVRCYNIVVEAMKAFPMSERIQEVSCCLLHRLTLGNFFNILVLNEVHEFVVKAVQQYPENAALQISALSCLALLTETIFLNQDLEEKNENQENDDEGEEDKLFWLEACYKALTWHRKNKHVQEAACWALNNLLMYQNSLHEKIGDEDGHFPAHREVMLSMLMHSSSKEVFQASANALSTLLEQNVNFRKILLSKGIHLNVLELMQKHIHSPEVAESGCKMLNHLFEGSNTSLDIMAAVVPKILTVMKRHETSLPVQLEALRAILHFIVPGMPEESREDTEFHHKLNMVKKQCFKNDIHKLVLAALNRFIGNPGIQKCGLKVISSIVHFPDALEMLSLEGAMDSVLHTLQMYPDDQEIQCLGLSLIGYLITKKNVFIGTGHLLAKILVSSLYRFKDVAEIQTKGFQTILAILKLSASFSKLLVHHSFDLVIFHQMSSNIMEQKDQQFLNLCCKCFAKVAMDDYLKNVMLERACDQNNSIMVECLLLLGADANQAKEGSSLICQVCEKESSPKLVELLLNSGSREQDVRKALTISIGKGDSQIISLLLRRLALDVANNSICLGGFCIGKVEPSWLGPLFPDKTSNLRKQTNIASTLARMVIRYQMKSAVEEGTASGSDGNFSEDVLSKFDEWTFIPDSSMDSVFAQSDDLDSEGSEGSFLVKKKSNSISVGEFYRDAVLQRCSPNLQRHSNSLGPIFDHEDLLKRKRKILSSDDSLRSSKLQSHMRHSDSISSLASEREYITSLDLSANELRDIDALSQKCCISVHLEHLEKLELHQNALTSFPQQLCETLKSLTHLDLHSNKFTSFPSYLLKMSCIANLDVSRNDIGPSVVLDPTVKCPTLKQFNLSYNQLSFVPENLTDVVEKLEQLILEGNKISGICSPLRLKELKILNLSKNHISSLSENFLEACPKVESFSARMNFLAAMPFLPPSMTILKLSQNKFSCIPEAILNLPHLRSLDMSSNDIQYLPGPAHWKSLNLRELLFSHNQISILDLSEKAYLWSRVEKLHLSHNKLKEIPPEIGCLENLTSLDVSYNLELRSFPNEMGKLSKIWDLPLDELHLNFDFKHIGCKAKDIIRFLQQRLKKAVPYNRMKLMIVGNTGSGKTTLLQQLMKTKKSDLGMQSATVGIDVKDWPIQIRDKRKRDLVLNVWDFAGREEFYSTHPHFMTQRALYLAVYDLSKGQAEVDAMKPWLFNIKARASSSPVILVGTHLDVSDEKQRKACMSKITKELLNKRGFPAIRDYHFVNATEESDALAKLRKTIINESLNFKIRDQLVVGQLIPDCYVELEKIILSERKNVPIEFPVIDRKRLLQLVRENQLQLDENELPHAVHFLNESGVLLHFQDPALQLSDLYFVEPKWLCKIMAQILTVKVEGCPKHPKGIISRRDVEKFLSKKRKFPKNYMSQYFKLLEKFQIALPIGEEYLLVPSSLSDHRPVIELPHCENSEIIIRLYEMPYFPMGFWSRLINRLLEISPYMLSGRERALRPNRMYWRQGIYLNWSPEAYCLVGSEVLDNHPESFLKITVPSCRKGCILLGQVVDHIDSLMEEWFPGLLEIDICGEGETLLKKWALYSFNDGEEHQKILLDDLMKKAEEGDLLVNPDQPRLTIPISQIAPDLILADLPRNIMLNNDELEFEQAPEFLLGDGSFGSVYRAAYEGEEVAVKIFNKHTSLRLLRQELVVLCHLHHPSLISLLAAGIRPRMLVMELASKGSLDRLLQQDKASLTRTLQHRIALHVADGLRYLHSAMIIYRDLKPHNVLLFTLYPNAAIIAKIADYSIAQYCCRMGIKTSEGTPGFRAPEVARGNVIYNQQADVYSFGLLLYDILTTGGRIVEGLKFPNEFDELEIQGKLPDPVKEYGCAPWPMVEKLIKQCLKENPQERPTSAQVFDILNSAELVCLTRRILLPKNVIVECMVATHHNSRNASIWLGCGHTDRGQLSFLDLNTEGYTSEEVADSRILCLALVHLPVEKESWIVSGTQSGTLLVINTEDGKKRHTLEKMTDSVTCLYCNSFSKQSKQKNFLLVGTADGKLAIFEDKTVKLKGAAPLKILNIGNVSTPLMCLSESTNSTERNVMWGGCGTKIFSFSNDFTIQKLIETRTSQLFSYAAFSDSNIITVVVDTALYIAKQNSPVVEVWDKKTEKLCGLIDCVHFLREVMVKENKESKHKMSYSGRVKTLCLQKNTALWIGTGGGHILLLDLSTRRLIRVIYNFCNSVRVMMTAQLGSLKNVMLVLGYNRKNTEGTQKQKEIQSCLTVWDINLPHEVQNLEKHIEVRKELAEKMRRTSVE
Sequence of Glycogen synthase kinase-3 beta (Homo sapiens) (P49841 whole entry, looked up): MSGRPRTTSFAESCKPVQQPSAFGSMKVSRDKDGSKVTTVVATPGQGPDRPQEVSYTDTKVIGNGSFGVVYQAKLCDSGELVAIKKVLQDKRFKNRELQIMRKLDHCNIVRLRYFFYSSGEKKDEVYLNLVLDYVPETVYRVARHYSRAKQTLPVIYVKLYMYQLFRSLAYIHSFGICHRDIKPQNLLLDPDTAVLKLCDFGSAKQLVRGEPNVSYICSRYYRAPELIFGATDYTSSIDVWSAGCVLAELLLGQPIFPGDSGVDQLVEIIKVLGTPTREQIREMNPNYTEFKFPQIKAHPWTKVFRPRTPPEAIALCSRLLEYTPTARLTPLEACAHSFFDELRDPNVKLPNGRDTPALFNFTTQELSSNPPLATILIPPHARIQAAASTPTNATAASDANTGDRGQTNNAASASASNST
Sequence of Cyclin-dependent kinase 5/CDK5 activator 1 (Homo sapiens) (Q00535 whole entry): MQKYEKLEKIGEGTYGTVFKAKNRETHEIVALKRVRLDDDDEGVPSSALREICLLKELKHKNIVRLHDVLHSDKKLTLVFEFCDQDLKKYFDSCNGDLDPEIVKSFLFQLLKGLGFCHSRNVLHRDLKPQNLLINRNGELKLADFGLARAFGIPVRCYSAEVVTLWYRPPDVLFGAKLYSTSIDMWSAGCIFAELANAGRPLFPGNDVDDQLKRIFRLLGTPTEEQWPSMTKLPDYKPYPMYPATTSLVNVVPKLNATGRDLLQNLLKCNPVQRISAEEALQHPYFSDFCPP
Sequence of Cyclin-dependent kinase 5/CDK5 activator 1 (Homo sapiens) (Q15078 99-307 partner limits assumed): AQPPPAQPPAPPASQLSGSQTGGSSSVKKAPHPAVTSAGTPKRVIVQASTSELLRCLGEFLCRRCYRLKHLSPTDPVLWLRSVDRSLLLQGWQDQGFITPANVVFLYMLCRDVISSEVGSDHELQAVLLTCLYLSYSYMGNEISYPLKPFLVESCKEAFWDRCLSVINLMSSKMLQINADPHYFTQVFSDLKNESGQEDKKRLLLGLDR
Sequence of RAF proto-oncogene serine/threonine-protein kinase (Homo sapiens) (P04049 whole entry): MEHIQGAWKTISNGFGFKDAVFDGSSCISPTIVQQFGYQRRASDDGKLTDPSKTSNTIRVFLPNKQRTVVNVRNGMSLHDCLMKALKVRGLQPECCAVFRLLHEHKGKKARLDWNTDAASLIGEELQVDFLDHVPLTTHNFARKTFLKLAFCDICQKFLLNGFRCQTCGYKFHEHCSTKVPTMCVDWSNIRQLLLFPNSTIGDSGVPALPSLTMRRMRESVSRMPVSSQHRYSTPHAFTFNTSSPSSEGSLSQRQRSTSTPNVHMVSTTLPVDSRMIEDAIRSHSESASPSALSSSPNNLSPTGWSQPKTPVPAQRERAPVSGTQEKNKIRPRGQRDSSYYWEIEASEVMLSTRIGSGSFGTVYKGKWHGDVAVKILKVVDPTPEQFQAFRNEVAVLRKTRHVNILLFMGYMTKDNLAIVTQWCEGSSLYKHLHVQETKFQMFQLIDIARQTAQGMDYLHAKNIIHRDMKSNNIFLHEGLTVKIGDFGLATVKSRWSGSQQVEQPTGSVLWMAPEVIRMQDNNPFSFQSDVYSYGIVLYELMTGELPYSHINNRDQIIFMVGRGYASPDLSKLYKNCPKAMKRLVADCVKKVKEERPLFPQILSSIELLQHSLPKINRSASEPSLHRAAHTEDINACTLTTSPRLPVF

As for `Cc1cc(N/N=C/c2ccncc2)nc2ccccc12`, the Activity in data set [1] is 50%; in data set [2] it was 86%; in data set [3], 94%; in data set [4], “Toxic”; in data set [5], 94%; in data set [6], 97%. In addition, the Activity was found to be 20% in data set [7] and 97% in data set [8].
